Assay results published in patent publication US12590099B2, “Inhibitors of histone deacetylase useful for the treatment or prevention of HIV infection” (Merck Sharp & Dohme LLC, priority 2018, dated 2026).
pIC50: −log10 of the molar value. Read-outs that look alike come from different tables or passages of the source.

Assays:
Type in all cases: biochemical
[1] = biological target: T1, Recombinant human HDAC1 (Homo sapiens, UniProt Q13547); experiment: Human HDAC enzyme inhibitor Fluor-de-Lys assay, HDAC1
T1 construct: FLAG (C); made in house
Procedure, shortened: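 Fluor-de-Lys format at room temperature (23° C.): compounds titrated 10-point, 1:3, preincubated with HDAC before substrate addition; HDAC1 run at 0.3 nM enzyme with 20 μM BML-KI104. Developer with excess HDAC inhibitor ends the reaction, and trypsin-liberated AMC fluorescence is the read-out.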

[2] = biological target: T2, Recombinant human HDAC2 (Homo sapiens, UniProt Q92769); experiment: Human HDAC enzyme inhibitor Fluor-de-Lys assay, HDAC2
T2 construct: Full length human HDAC2-FLAG was expressed in baculovirus infected Sf9 cells; FLAG (C); made in house; host or cells: Sf9 (baculovirus)
Procedure, shortened: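 Fluor-de-Lys format at room temperature (23° C.): compounds titrated 10-point, 1:3, preincubated with HDAC before substrate addition. Developer with excess HDAC inhibitor ends the reaction, and trypsin-liberated AMC fluorescence is the read-out.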

[3] = biological target: T3, HDAC6 (Homo sapiens, UniProt Q9UBN7); experiment: Human HDAC enzyme inhibitor Fluor-de-Lys assay, HDAC6
T3 sequence (Q9UBN7 1-1215): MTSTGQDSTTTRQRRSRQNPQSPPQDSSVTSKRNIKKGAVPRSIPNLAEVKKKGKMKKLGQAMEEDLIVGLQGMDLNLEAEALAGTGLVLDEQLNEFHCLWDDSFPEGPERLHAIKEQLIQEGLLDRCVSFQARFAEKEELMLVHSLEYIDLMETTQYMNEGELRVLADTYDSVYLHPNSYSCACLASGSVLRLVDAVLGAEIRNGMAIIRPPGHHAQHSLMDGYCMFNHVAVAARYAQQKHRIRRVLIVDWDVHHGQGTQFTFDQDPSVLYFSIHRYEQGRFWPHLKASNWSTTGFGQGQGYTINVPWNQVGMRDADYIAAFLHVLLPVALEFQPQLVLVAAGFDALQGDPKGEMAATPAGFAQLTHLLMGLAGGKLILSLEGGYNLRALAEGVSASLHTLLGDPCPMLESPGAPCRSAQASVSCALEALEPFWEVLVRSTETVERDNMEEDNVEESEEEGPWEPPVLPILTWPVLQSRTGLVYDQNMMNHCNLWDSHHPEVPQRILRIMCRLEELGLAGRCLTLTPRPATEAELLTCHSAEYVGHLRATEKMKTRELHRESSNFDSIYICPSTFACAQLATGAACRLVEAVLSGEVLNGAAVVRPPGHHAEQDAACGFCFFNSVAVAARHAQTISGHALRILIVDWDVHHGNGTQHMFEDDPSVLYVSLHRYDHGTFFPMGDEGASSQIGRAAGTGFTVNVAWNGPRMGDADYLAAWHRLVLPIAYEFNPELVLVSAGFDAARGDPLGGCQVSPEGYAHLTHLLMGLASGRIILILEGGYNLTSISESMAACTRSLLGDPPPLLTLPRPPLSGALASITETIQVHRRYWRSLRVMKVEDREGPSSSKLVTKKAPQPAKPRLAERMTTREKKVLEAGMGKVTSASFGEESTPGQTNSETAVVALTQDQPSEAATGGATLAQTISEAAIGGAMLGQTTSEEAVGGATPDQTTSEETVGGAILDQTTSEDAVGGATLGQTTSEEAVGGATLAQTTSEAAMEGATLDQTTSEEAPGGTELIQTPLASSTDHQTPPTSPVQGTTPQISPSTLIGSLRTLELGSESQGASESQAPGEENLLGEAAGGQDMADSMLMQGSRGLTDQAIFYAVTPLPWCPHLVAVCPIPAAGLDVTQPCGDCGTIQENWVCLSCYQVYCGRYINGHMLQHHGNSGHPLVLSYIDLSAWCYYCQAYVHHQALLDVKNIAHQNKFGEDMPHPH

[4] = biological target: T4, Recombinant human HDAC8 (Homo sapiens, UniProt Q9BY41); experiment: Human HDAC enzyme inhibitor Fluor-de-Lys assay, HDAC8
T4 construct: purchased Enzo Life Sciences BML-SE145-0100
T4 sequence (Q9BY41 1-377): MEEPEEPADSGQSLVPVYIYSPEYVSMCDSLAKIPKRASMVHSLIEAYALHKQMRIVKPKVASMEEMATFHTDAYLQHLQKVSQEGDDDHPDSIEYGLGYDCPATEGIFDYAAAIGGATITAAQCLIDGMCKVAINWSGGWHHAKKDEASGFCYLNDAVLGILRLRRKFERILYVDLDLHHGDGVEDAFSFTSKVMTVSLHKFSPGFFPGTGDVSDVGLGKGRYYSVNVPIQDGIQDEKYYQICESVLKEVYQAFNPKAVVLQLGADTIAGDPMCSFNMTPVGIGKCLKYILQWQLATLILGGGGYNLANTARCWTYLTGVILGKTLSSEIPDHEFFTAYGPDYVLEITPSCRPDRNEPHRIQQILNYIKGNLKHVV

[5] = recombinant human HDAC1, Fluor-de-Lys assay
[6] = recombinant human HDAC2, Fluor-de-Lys assay
[7] = recombinant human HDAC8, Fluor-de-Lys assay

T2 sequence (Q92769 whole entry): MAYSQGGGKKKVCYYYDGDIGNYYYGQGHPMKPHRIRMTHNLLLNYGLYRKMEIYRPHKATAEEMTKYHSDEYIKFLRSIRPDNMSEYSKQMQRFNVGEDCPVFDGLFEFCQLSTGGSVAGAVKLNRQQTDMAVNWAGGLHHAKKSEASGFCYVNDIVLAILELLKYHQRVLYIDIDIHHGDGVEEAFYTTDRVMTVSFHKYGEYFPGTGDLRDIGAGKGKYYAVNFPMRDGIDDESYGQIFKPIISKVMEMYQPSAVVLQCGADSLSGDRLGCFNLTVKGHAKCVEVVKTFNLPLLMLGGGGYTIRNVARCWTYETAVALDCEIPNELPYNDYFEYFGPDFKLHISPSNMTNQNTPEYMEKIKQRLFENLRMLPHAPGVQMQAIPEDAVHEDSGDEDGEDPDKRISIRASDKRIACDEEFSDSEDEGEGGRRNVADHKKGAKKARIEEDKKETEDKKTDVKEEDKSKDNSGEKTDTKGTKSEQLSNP
T1 sequence (Q13547 whole entry): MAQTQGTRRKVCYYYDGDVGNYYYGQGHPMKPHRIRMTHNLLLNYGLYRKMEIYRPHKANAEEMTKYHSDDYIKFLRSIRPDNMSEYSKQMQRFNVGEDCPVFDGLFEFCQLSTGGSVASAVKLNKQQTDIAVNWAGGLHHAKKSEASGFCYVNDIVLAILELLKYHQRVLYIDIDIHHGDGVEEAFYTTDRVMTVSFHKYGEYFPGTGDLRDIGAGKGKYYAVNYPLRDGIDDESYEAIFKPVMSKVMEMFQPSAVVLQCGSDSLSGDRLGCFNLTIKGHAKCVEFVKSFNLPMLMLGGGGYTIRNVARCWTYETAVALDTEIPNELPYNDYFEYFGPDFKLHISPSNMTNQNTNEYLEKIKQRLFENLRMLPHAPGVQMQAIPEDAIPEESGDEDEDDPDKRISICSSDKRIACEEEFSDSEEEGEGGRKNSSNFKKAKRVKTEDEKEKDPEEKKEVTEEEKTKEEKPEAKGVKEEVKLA

SMILES | pIC50 [1, 5] | pIC50 [2, 6] | pIC50 ([3]; HDAC6, Fluor-de-Lys assay) | pIC50 [4, 7] | pIC50 [1] | pIC50 [2] | pIC50 [3] | pIC50 [4]
CCC(=O)CCCCC[C@H](NC(=O)C1CC12CCN(CC)CC2)c1nc(-c2ccc(F)cc2)[nH]c1-c1cnn(C)c1 (stereo partly drawn) [Compound 248] | 8.23 | 7.62 | < 4.35 | 4.65 | – | – | – | –
CCC(=O)CCCCC[C@H](NC(=O)[C@H]1CC12CCN(CC)CC2)c1ncc(-c2ccc(-c3nccs3)cc2)o1 [Compound 93] | – | – | – | – | 8.15 | 7.59 | 6.02 | 4.50
CCC(=O)CCCCC[C@H](NC(=O)[C@H]1CC12CCN(C)CC2)c1ncc(-c2ccc(C(F)(F)F)cc2)[nH]1 [Compound 284] | 7.73 | 7.09 | 4.87 | 4.83 | – | – | – | –
CCC(=O)CCCCC[C@H](NC(=O)[C@H]1CC12CCN(C)CC2)c1ncc(-c2cnc(OC)nc2)[nH]1 [Compound 255] | 6.77 | 6.31 | 4.92 | 5.24 | – | – | – | –
CCC(=O)CCCCC[C@H](NC(=O)[C@H]1CC12CCN(C)CC2)c1ncc(-c2ccc(C(=O)NC3CCOC3)cc2)[nH]1 (stereo partly drawn) [Compound 258] | 8.11 | 7.62 | 4.41 | 4.79 | – | – | – | –
CCC(=O)CCCCC[C@H](NC(=O)CC1CC2(C1)CN(C(C)=O)C2)c1ncc(-c2ccccc2)[nH]1 [Compound 300, (S)-2-(2-acetyl-2-azaspiro[3.3]heptan-6-yl)-N-(7-oxo-1-(5-phenyl-1H-imidazol-2-yl)nonyl)acetamide] | 6.70 | 6.10 | 4.63 | 4.96 | – | – | – | –
CCC(=O)CCCCC[C@H](NC(=O)CC1CC2(C1)CN(C)C2)c1ncc(-c2cc3ccccc3nc2O)[nH]1 [Compound 326] | 8.49 | 8.05 | < 5.82 | < 5.35 | – | – | – | –
CCC(=O)CCCCC[C@H](NC(=O)[C@H]1CC12CCN(CC1CC1)CC2)c1ncc(-c2cc3ccn(C)c(=O)c3cc2OC)o1 [Compound 229] | 10.05 | 9.15 | 6.35 | < 6.05 | – | – | – | –
CCC(=O)CCCCC[C@H](NC(=O)CC1CC2(C1)CN(C)C2)c1ncc(-c2cc3ccccc3nc2OC)[nH]1 [Compound 314] | 8.99 | 8.29 | 6.39 | 5.59 | – | – | – | –
CCC(=O)CCCCC[C@H](NC(=O)[C@H]1CC12CCN(C)CC2)c1ncc(-c2ccc(-n3nc(C)cc3C)cc2)[nH]1 [Compound 260] | 7.88 | 7.28 | 4.55 | < 4.82 | – | – | – | –
CCC(=O)CCCCC[C@H](NC(=O)[C@H]1CC12CCN(C)CC2)c1ncc(-c2cn(C)c3ccccc23)[nH]1 [Compound 264] | 8.75 | 8.23 | 5.77 | 5.94 | – | – | – | –
CCC(=O)CCCCC[C@H](NC(=O)[C@H]1CC12CCN(C(C)C)CC2)c1ncc(-c2ccc3c(ccc(=O)n3C)c2)o1 [Compound 96] | – | – | – | – | 8.16 | 7.35 | 5.14 | < 4.35
CCC(=O)CCCCC[C@H](NC(=O)C1CC12CCN(CC)CC2)c1nc(-c2ccc(F)cc2)[nH]c1-c1cnc(OC)nc1 (stereo partly drawn) [Compound 247] | 7.41 | 6.67 | < 4.35 | 4.66 | – | – | – | –
CCC(=O)CCCCC[C@H](NC(=O)[C@H]1CC12CCN(C)CC2)c1ncc(-c2cnc(-n3cc(C)cn3)nc2)[nH]1 [Compound 257] | 7.19 | 6.73 | 4.44 | 4.98 | – | – | – | –
CCC(=O)CCCCC[C@H](NC(=O)CC1CC2(C1)CN(C)C2)c1ncc(-c2ccccc2)[nH]1 [Compound 307] | 7.20 | 6.21 | 4.92 | 4.87 | – | – | – | –
CCC(=O)CCCCC[C@H](NC(=O)[C@H]1CC12CCN(CC)CC2)c1ncc(-c2ccc3nn(C4CC4)cc3c2)[nH]1 [Compound 238] | 9.66 | 8.72 | 5.11 | 5.19 | – | – | – | –
CCC(=O)CCCCC[C@H](NC(=O)[C@H]1CC12CCN(C)CC2)c1[nH]c(-c2ccc(F)cc2)nc1Cl [Compound 91] | – | – | – | – | 8.36 | 7.85 | 4.56 | 4.50
CCC(=O)CCCCC[C@H](NC(=O)[C@H]1CC12CCN(C(C)C)CC2)c1ncc(-c2cc3ccccc3nc2OC)o1 [Compound 99] | – | – | – | – | 8.45 | 7.75 | 6.96 | 4.48
CCC(=O)CCCCC[C@H](NC(=O)C1=NOC2(CCN(CC3CC3)CC2)C1)c1ncc(-c2cc3ccc(C)nc3cc2F)[nH]1 [Compound 234] | 9.25 | 7.85 | < 6.05 | < 6.05 | – | – | – | –
CCC(=O)CCCCC[C@H](NC(=O)[C@H]1CC12CCN(C)CC2)c1ncc(-c2ccc3ncoc3c2)[nH]1 [Compound 89] | – | – | – | – | 8.44 | – | 5.12 | 5.01
CCC(=O)CCCCC[C@H](NC(=O)[C@H]1CC12CCN(CC)CC2)c1ncc(-c2ccc(-c3ncco3)cc2)o1 [Compound 94] | – | – | – | – | 8.04 | 7.47 | 5.64 | 4.35
CCC(=O)CCCCC[C@H](NC(=O)CC1CC2(C1)CN(C(C)C)C2)c1ncc(-c2cc3ccccc3nc2OC)[nH]1 [Compound 273] | > 8.82 | 8.47 | 6.40 | 5.71 | – | – | – | –
CCC(=O)CCCCC[C@H](NC(=O)C1NC(=O)CC12CN(C)C2)c1ncc(-c2cc3ccccc3nc2OC)[nH]1 (stereo partly drawn) [Compound 317] | 9.06 | 8.30 | 6.73 | 5.31 | – | – | – | –
CCC(=O)CCCCC[C@H](NC(=O)CC1CC2(CNC2)C1)c1ncc(-c2ccccc2)[nH]1 [Compound 297] | 7.55 | 6.92 | 5.09 | 5.07 | – | – | – | –
CCC(=O)CCCCC[C@H](NC(=O)C1CC12CC1CCC(C2)N1C)c1ncc(-c2ccc3ncccc3c2)[nH]1 (single isomer, unassigned) [Compound 242] | 8.40 | 7.79 | 6.88 | 5.29 | – | – | – | –
CCC(=O)CCCCC[C@H](NC(=O)[C@H]1CC12CCN(C)CC2)c1ncc(-c2ccc(F)cc2F)[nH]1 [Compound 289] | 7.20 | 6.59 | 4.98 | 5.43 | – | – | – | –
CCC(=O)CCCCC[C@H](NC(=O)[C@H]1CC12CCN(C)CC2)c1nc(Cl)c(-c2cc3ccccc3nc2O)[nH]1 [Compound 81, (1S)—N-{(1S)-1-[4-chloro-5-(2-hydroxyquinolin-3-yl)-1H-imidazol-2-yl]-7-oxononyl}-6-methyl-6-azaspiro[2.5]octane-1-carboxamide] | – | – | – | – | 7.05 | 6.47 | 5.41 | 5.27
CCC(=O)CCCCC[C@H](NC(=O)C1=NOC2(CCN(CC3CC3)CC2)C1)c1ncc(-c2cc3ccc(C)nc3cc2OC)o1 [Compound 225] | 9.22 | 8.21 | 6.12 | < 6.05 | – | – | – | –
